Results reported in ChEMBL document CHEMBL6078713, “Synthesis and mechanistic studies of 4-aminoquinoline-Isatin molecular hybrids and Schiff's bases as promising antimicrobial agents” (Eur J Med Chem, 2025).

Key:
Salmonella typhi = test: Antibacterial activity against Salmonella typhi assessed as diameter of zone of inhibition at 500 ug/ml by agar disk diffusion method; type: functional, Salmonella enterica subsp. enterica serovar Typhi; conditions: Salmonella enterica, read-out: DIZ
Escherichia coli = test: Antibacterial activity against Escherichia coli MTCC 443 assessed as diameter of zone of inhibition at 500 ug/ml by agar disk diffusion method; type: functional; conditions: read-out: DIZ
Pseudomonas aeruginosa = test: Antibacterial activity against Pseudomonas aeruginosa MTCC 2453 assessed as diameter of zone of inhibition at 500 ug/ml by agar disk diffusion method; type: functional; conditions: read-out: DIZ
Enterococcus faecalis = test: Antibacterial activity against Enterococcus faecalis MTCC 439 assessed as diameter of zone of inhibition at 500 ug/ml by agar disk diffusion method; type: functional; conditions: read-out: DIZ
Staphylococcus aureus = test: Antibacterial activity against Staphylococcus aureus MTCC 902 assessed as diameter of zone of inhibition at 500 ug/ml by agar disk diffusion method; type: functional; conditions: read-out: DIZ
Bacillus subtilis = test: Antibacterial activity against Bacillus subtilis MTCC 736 assessed as diameter of zone of inhibition at 500 ug/ml by agar disk diffusion method; type: functional; conditions: read-out: DIZ

In the case of Cc1ccc(/C=N/CCNc2ccnc3cc(Cl)ccc23)cc1, the zone of inhibition at 500 µg/mL (Salmonella typhi) is reported as 6 mm, the zone of inhibition at 500 µg/mL (Escherichia coli) is reported as 8 mm and the zone of inhibition at 500 µg/mL (Pseudomonas aeruginosa) is reported as 8 mm. For the same compound, the zone of inhibition at 500 µg/mL (Enterococcus faecalis) was 6 mm and the zone of inhibition at 500 µg/mL (Staphylococcus aureus) was 6 mm.
Cc1cc(C)c2c(c1)/C(=N/CCNc1ccnc3cc(Cl)ccc13)C(=O)N2 gave a zone of inhibition at 500 µg/mL (Escherichia coli) of 11 mm and a zone of inhibition at 500 µg/mL (Staphylococcus aureus) of 6 mm.
For Clc1ccc2c(NCC/N=C/c3ccc(Br)cc3)ccnc2c1, the zone of inhibition at 500 µg/mL (Enterococcus faecalis) was 8 mm.
With O=C1Nc2cc(F)ccc2/C1=N/CCNc1ccnc2cc(Cl)ccc12 the zone of inhibition at 500 µg/mL (Salmonella typhi) was 7 mm and the zone of inhibition at 500 µg/mL (Staphylococcus aureus) was 7 mm.
Clc1ccc2c(NCC/N=C/c3ccccc3)ccnc2c1 gave a zone of inhibition at 500 µg/mL (Salmonella typhi) of 6 mm, a zone of inhibition at 500 µg/mL (Bacillus subtilis) of 7 mm and a zone of inhibition at 500 µg/mL (Escherichia coli) of 10 mm. The zone of inhibition at 500 µg/mL (Pseudomonas aeruginosa) was 8 mm, the zone of inhibition at 500 µg/mL (Enterococcus faecalis) was 8 mm and the zone of inhibition at 500 µg/mL (Staphylococcus aureus) was 8 mm.
Compound COc1ccc2c(c1)NC(=O)/C2=N\CCNc1ccnc2cc(Cl)ccc12 has a zone of inhibition at 500 µg/mL (Salmonella typhi) of 10 mm and a zone of inhibition at 500 µg/mL (Escherichia coli) of 16 mm.
For COc1ccc(/C=N/CCNc2ccnc3cc(Cl)ccc23)cc1, the zone of inhibition at 500 µg/mL (Salmonella typhi) was 9 mm, the zone of inhibition at 500 µg/mL (Bacillus subtilis) was 6 mm and the zone of inhibition at 500 µg/mL (Escherichia coli) was 9 mm. The zone of inhibition at 500 µg/mL (Pseudomonas aeruginosa) was 8 mm, the zone of inhibition at 500 µg/mL (Enterococcus faecalis) was 8 mm and the zone of inhibition at 500 µg/mL (Staphylococcus aureus) was 8 mm.
In the case of FC(F)(F)c1ccc(/C=N/CCNc2ccnc3cc(Cl)ccc23)cc1, the zone of inhibition at 500 µg/mL (Salmonella typhi) is reported as 9 mm, the zone of inhibition at 500 µg/mL (Bacillus subtilis) is reported as 7 mm and the zone of inhibition at 500 µg/mL (Escherichia coli) is reported as 10 mm. For the same compound, the zone of inhibition at 500 µg/mL (Pseudomonas aeruginosa) was 8 mm, the zone of inhibition at 500 µg/mL (Enterococcus faecalis) was 8 mm and the zone of inhibition at 500 µg/mL (Staphylococcus aureus) was 7 mm.
Clc1ccc2c(NCC/N=C/c3c[nH]c4ccccc34)ccnc2c1 was tested, and the zone of inhibition at 500 µg/mL (Salmonella typhi) was 9 mm, the zone of inhibition at 500 µg/mL (Bacillus subtilis) was 8 mm and the zone of inhibition at 500 µg/mL (Escherichia coli) was 10 mm. It also gave a zone of inhibition at 500 µg/mL (Pseudomonas aeruginosa) of 7 mm, a zone of inhibition at 500 µg/mL (Enterococcus faecalis) of 9 mm and a zone of inhibition at 500 µg/mL (Staphylococcus aureus) of 8 mm.
For COc1cc(/C=N/CCNc2ccnc3cc(Cl)ccc23)ccc1O, the zone of inhibition at 500 µg/mL (Salmonella typhi) was 6 mm, the zone of inhibition at 500 µg/mL (Escherichia coli) was 9 mm and the zone of inhibition at 500 µg/mL (Pseudomonas aeruginosa) was 7 mm. The zone of inhibition at 500 µg/mL (Enterococcus faecalis) was 7 mm and the zone of inhibition at 500 µg/mL (Staphylococcus aureus) was 6 mm.
Compound O=C1Nc2ccccc2/C1=N/CCNc1ccnc2cc(Cl)ccc12 has a zone of inhibition at 500 µg/mL (Bacillus subtilis) of 10 mm and a zone of inhibition at 500 µg/mL (Escherichia coli) of 11 mm.
For COc1ccc(/C=N/CCNc2ccnc3cc(Cl)ccc23)cc1OC, the zone of inhibition at 500 µg/mL (Salmonella typhi) was 8 mm, the zone of inhibition at 500 µg/mL (Bacillus subtilis) was 7 mm and the zone of inhibition at 500 µg/mL (Escherichia coli) was 8 mm. It also gave a zone of inhibition at 500 µg/mL (Pseudomonas aeruginosa) of 7 mm, a zone of inhibition at 500 µg/mL (Enterococcus faecalis) of 7 mm and a zone of inhibition at 500 µg/mL (Staphylococcus aureus) of 8 mm.
Compound O=C1Nc2c(cccc2[N+](=O)[O-])/C1=N/CCNc1ccnc2cc(Cl)ccc12 has a zone of inhibition at 500 µg/mL (Bacillus subtilis) of 11 mm and a zone of inhibition at 500 µg/mL (Staphylococcus aureus) of 8 mm.
Clc1ccc2c(NCC/N=C/c3cccs3)ccnc2c1 gave a zone of inhibition at 500 µg/mL (Salmonella typhi) of 8 mm, a zone of inhibition at 500 µg/mL (Bacillus subtilis) of 8 mm and a zone of inhibition at 500 µg/mL (Escherichia coli) of 9 mm. For the same compound, the zone of inhibition at 500 µg/mL (Pseudomonas aeruginosa) was 6 mm, the zone of inhibition at 500 µg/mL (Enterococcus faecalis) was 8 mm and the zone of inhibition at 500 µg/mL (Staphylococcus aureus) was 7 mm.
CN(C)c1ccc(/C=N/CCNc2ccnc3cc(Cl)ccc23)cc1 was tested, and the zone of inhibition at 500 µg/mL (Salmonella typhi) was 7 mm, the zone of inhibition at 500 µg/mL (Bacillus subtilis) was 8 mm and the zone of inhibition at 500 µg/mL (Escherichia coli) was 10 mm. For the same compound, the zone of inhibition at 500 µg/mL (Pseudomonas aeruginosa) was 7 mm, the zone of inhibition at 500 µg/mL (Enterococcus faecalis) was 8 mm and the zone of inhibition at 500 µg/mL (Staphylococcus aureus) was 9 mm.
Oc1ccc(/C=N/CCNc2ccnc3cc(Cl)ccc23)cc1 gave a zone of inhibition at 500 µg/mL (Salmonella typhi) of 8 mm, a zone of inhibition at 500 µg/mL (Bacillus subtilis) of 8 mm and a zone of inhibition at 500 µg/mL (Escherichia coli) of 10 mm. The zone of inhibition at 500 µg/mL (Pseudomonas aeruginosa) was 10 mm, the zone of inhibition at 500 µg/mL (Enterococcus faecalis) was 6 mm and the zone of inhibition at 500 µg/mL (Staphylococcus aureus) was 9 mm.
Work on COc1ccc2c(c1)/C(=N/CCNc1ccnc3cc(Cl)ccc13)C(=O)N2 yielded a zone of inhibition at 500 µg/mL (Pseudomonas aeruginosa) of 11 mm and a zone of inhibition at 500 µg/mL (Enterococcus faecalis) of 10 mm.
For O=C1Nc2ccc(Br)cc2/C1=N/CCNc1ccnc2cc(Cl)ccc12, the zone of inhibition at 500 µg/mL (Salmonella typhi) was 11 mm and the zone of inhibition at 500 µg/mL (Escherichia coli) was 11 mm.
Compound Clc1ccc(/C=N/CCNc2ccnc3cc(Cl)ccc23)cc1 has a zone of inhibition at 500 µg/mL (Salmonella typhi) of 6 mm, a zone of inhibition at 500 µg/mL (Bacillus subtilis) of 7 mm and a zone of inhibition at 500 µg/mL (Escherichia coli) of 6 mm. For the same compound, the zone of inhibition at 500 µg/mL (Pseudomonas aeruginosa) was 7 mm and the zone of inhibition at 500 µg/mL (Enterococcus faecalis) was 6 mm.
